# Test results as given in patent US5730982A, “Therapeutic use of hypervariable region of monoclonal antibody M195 and constructs thereof” (Sloan-Kettering Institute for Cancer Research, priority 1995, dated 1998).
# Tested on: myeloid leukemic progenitor cells [CFU-GM-(L)] from AML patients
# Test: Purging of fresh leukemic cells from AML patients, CFU-GM-(L) colony inhibition
# Assay type: cell-based
# Conditions: Homo sapiens, fresh leukemic cells from 4 patients with AML, 4-HC 100 uM/L, VP-16 5 ug/ml where combined
# Procedure: We report the results of a preclinical study comparing four different purging protocols using promyelocytic human cell line HL-60 and myeloid leukemic progenitor cells [CFU-GM-(L)] from AML patients assayed in semisolid culture. We studied the antileukemic effect of 1] complement-dependent lysis by 2 different MoAbs (M195 and F23; 40 ug/ml), reactive with distinct antigens found on early myeloid cells and monocytes, used alone and in combinations; 2] 4-Hydroperoxycyclophosphamide (4-HC) (100 uM/L) alone or 3] combined with VP-16 (5 ug/ml) and 4] a cocktail of 1-3 protocols as above (ie combined immunochemotherapy). Four logs of HL-60 tumor cell elimination was observed after 1 hour incubation with both MoAbs plus 4-HC+VP-16 while the single treatment (ie immunotherapy or chemotherapy) provided 1.5 and 3.0 logs of colony forming inhibition respectively.
# The combined treatment of MoAbs and 4-HC+VP-16 produced a 3-log reduction of CFU-GM-(L) colony formation. By comparison the mean recovery of committed normal bone marrow progenitors after incubation with MoAbs and complement was 19.5% for CFU-GM, 32.3% for BFU-E and 16.7% for CFU-MIX.
compound,measurement,value
"O=P1(N(CCCl)CCCl)NC(OO)CCO1 (stereo not shown) [4-HC, 4-Hydroperoxycyclophosphamide]",inhibition at 100 µM,95.5%
